{"source": "patent US11952388B2", "about": "“Crystal form of tri-cycle compound and application thereof” (FUJIAN AKEYLINK BIOTECHNOLOGY CO., LTD., priority 2018, dated 2024)", "key": {"CYP2C19": {"target": "T1, CYP2C19 (Homo sapiens, UniProt P33261)", "T1 construct": "from tissue; host or cells: human liver microsomes", "T1 sequence (P33261 whole entry)": "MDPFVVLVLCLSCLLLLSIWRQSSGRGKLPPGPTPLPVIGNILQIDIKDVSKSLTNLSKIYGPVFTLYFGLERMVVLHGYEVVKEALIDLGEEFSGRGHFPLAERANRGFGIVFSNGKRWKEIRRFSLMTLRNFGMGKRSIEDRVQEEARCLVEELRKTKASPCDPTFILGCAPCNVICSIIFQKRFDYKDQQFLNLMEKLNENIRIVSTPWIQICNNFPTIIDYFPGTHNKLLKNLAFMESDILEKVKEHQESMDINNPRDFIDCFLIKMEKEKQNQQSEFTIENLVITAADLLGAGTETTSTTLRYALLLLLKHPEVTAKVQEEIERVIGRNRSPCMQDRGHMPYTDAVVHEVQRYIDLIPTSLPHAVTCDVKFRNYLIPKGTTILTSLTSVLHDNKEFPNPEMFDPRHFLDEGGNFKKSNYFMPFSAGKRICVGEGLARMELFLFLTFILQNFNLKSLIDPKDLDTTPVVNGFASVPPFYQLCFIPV", "experiment": "Inhibition of human liver microsomal cytochrome P450 isoenzymes", "type": "in vitro ADME", "details": "human liver microsomes", "experimental": "(§1) Objectives of experiment: To determine the inhibitory effect of the test compound on the activity of human liver microsomal cytochrome P450 isoenzymes (CYP1A2, CYP2C9, CYP2C19, CYP2D6 and CYP3A4). Experimental operation: First, the test compound (10 mM) was diluted in a gradient to prepare the working solutions (100× final concentration). The concentrations of the working solutions were 5, 1.5, 0.5, 0.15, 0.05, 0.015 and 0.005 mM. Meanwhile, the working solutions of mixture (5 in 1) of positive inhibitors of each P450 isoenzyme (CYP1A2, CYP2C9, CYP2C19, CYP2D6 and CYP3A4) and the specific substrate of the isoenzymes were also prepared; the human liver microsomes frozen in the refrigerator at −80° C. were unfrozen on ice. After the human liver microsomes were completely dissolved, they were diluted with PB to prepare a certain concentration (0.253 mg/mL) of working solution; 20 uL of the substrate mixture was added into the reaction plate (20 μl PB was added into the Blank well) as well as 158 μL of human liver microsome working solution, then the reaction plate was placed on ice and set aside; at this time, 2 μL of each concentration of test compound (N=1) and specific inhibitor (N=2) were added to the corresponding well, the group without inhibitor (test compound or positive inhibitor) was added with the corresponding organic solvent as a control sample (the test compound control sample was 1:1 DMSO:MeOH, and the positive control sample was 1:9 DMSO:MeOH); after pre-incubating in a 37° C. water bath for 10 min, the reaction plate was added with 20 μL of coenzyme factor (NADPH) solution and water bathed at 37° C. for 10 min; 400 μL of cold acetonitrile solution (internal standard was 200 ng/mL Tolbutamide and Labetalol) was added to terminate the reaction; the reaction plate was then placed on a shaker and shaken for 10 min, followed by centrifuging at 4,000 rpm for 20 min; 200 μL of supernatant was added to 100 μL of water for sample dilution; finally, the plate was sealed, shaken well, and subjected to LC/MS/MS detection."}, "CYP2C9": {"target": "T2, CYP2C9 (Homo sapiens, UniProt P11712)", "T2 construct": "from tissue; host or cells: human liver microsomes", "T2 sequence (P11712 whole entry)": "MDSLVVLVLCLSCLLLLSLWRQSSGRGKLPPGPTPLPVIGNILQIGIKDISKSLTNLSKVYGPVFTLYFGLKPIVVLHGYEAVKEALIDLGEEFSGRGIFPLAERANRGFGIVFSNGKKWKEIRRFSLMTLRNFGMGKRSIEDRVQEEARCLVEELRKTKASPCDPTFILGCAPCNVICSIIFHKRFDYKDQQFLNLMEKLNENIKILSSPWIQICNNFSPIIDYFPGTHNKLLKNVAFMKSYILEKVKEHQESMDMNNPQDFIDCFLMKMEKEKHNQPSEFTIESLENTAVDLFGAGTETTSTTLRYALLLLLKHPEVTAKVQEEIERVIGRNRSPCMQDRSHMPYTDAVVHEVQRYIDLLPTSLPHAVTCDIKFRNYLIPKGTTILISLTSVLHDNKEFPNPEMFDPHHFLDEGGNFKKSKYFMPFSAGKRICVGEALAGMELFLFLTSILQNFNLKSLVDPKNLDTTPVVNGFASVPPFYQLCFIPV", "experiment": "Inhibition of human liver microsomal cytochrome P450 isoenzymes", "type": "in vitro ADME", "details": "human liver microsomes", "experimental": "as §1"}, "CYP2D6": {"target": "T3, CYP2D6 (Homo sapiens, UniProt P10635)", "T3 construct": "from tissue; host or cells: human liver microsomes", "T3 sequence (P10635 whole entry)": "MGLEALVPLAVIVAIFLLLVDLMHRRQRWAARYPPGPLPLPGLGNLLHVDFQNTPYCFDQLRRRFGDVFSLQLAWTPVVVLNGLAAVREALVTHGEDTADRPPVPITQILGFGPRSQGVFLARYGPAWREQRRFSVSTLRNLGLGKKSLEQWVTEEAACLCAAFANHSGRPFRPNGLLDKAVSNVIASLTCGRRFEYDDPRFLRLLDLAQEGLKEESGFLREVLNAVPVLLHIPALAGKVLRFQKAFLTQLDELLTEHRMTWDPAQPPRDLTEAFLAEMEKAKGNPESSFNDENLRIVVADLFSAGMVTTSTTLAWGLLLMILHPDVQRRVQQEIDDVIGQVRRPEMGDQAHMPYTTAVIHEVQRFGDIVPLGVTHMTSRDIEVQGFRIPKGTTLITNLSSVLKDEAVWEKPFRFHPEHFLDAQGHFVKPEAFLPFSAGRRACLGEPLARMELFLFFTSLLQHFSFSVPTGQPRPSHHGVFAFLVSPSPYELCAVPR", "experiment": "Inhibition of human liver microsomal cytochrome P450 isoenzymes", "type": "in vitro ADME", "details": "human liver microsomes", "experimental": "as §1"}, "CYP3A4": {"target": "T4, CYP3A4 (Homo sapiens, UniProt P08684)", "T4 construct": "from tissue; host or cells: human liver microsomes", "T4 sequence (P08684 whole entry)": "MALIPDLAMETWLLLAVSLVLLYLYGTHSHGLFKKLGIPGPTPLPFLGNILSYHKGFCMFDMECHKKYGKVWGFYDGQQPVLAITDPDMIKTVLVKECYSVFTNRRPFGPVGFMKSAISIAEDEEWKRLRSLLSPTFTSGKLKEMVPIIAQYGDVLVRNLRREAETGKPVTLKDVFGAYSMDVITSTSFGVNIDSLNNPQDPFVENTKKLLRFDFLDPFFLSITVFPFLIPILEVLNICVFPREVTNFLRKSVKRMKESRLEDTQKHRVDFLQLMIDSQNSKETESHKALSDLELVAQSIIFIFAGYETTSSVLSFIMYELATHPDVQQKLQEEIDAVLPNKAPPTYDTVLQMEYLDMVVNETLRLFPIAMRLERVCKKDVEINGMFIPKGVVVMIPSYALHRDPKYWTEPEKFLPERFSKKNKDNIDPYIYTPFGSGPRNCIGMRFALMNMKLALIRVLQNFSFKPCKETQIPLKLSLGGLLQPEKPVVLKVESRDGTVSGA", "experiment": "Inhibition of human liver microsomal cytochrome P450 isoenzymes", "type": "in vitro ADME", "details": "human liver microsomes", "experimental": "as §1"}, "proteins in human plasma": {"test_system": "proteins in human plasma", "experiment": "Plasma protein binding rate (equilibrium dialysis)", "type": "in vitro ADME", "experimental": "(§2) Objectives of Experiment: to determine the binding rate of test compound to proteins in human and CD-1 mouse plasma\n(§3) Experimental operation: 796 μL of blank plasma was taken from human and CD-1 mouse, and 4 μL of test compound working solution (400 μM) or warfarin working solution (400 μM) was added to make the final concentrations of both test compound and warfarin in the plasma sample 2 μM. The sample was mixed thoroughly. The final concentration of DMSO in the organic phase was 0.5%; 50 μt of plasma samples of test compound and warfarin was pipetted into the sample receiving plate (in triplicate), and immediately the corresponding volume of blank plasma or buffer was added to make the final volume of each sample 100 μL and the volume ratio of plasma:dialysis buffer 1:1. Then 400 μL of stop solution is added to these samples. These samples would be used as TO samples for determination of recovery and stability. […] All samples were analyzed by LC/MS/MS after protein precipitation, and the protein binding rate and recovery rate was calculated with the formula: % Unbound (unbound rate)=100*FC/TC, % Bound (bound rate)=100-% Unbound, % Recovery (recovery rate)=100*(FC+TC)/T0."}, "[1]": {"test_system": "proteins in CD-1 mouse plasma", "experiment": "Plasma protein binding rate (equilibrium dialysis)", "type": "in vitro ADME, CD-1 mouse (mus musculus)", "experimental": "as §2, §3"}, "[2]": {"experiment": "Pharmacokinetics of oral administration and intravenous injection in SD rats", "type": "in vivo", "details": "male, rat, plasma", "experimental": "2. Study on the Pharmacokinetics of Oral Administration and Intravenous Injection of the Compound Represented by Formula (I) in SD Rats The compound represented by formula (I) was mixed with 5% DMSO/55% polyethylene glycol 400/40% aqueous solution, vortexed and sonicated to obtain an approximately clear solution of 1 mg/mL, which was then filtered by a microporous membrane for later use. Male SD rats aged 7 to 10 weeks were selected and the candidate compound solution was administered intravenously at a dose of 1 mg/kg. The compound represented by formula (I) was mixed with 10% solutol aqueous solution, vortexed and sonicated to obtain an approximately clear solution of 1 mg/mL, which was then filtered through a microporous membrane for later use. Male SD rats aged 7 to 10 weeks were selected and the candidate compound solution was orally administered at a dose of 10 mg/kg. Whole blood was collected at a certain period of time to prepare plasma, drug concentration was analyzed by LC-MS/MS method, and pharmacokinetic parameters was calculated by Phoenix WinNonlin software (Pharsight, USA). Note: T1/2 means half-life; Vdss means apparent volume of distribution; Cl means clearance rate; AUC0_last means area below the drug-time curve; Tmax means peak time; Cmax means peak concentration; F % means oral bioavailability; iv means intravenous injection; PO means oral administration; mpk means mg/kg."}}, "note": "Read-outs that look alike come from different tables or passages of the source.", "data": [{"smiles": "Cc1cc2n(c1)S(=O)(=O)c1ccc(C(=O)NCC[C@H]3COCCO3)cc1NC2=O", "note": "[compound represented by formula (I)]", "values": [{"measurement": "IC50", "setting": "CYP2C19", "result": "> 50", "unit": "µM"}, {"measurement": "inhibitory effect on CYP2C19 (conclusion in words)", "setting": "CYP2C19", "result": "no evident inhibitory effect"}, {"measurement": "IC50", "setting": "CYP2C9", "result": "> 50", "unit": "µM"}, {"measurement": "inhibitory effect on CYP2C9 (conclusion in words)", "setting": "CYP2C9", "result": "no evident inhibitory effect"}, {"measurement": "IC50", "setting": "CYP2D6", "result": "> 50", "unit": "µM"}, {"measurement": "inhibitory effect on CYP2D6 (conclusion in words)", "setting": "CYP2D6", "result": "no evident inhibitory effect"}, {"measurement": "IC50", "setting": "CYP3A4", "result": "> 50", "unit": "µM"}, {"measurement": "inhibitory effect on CYP3A4 (conclusion in words)", "setting": "CYP3A4", "result": "no evident inhibitory effect"}, {"measurement": "binding rate to plasma proteins (conclusion in words)", "setting": "proteins in human plasma", "result": "lower binding rate"}, {"measurement": "Binding rate of plasma protein", "setting": "proteins in human plasma; 2 μM", "result": 81, "unit": "%"}, {"measurement": "binding rate to plasma proteins (conclusion in words)", "setting": "[1]", "result": "lower binding rate"}, {"measurement": "Binding rate of plasma protein", "setting": "[1]; 2 μM", "result": 94, "unit": "%"}, {"measurement": "clearance", "setting": "[2]; 1 mg/kg, iv 1 mpk", "result": 8.5, "unit": "mL/min/kg"}, {"measurement": "half-life", "setting": "[2]; 1 mg/kg, iv 1 mpk", "result": 57, "unit": "min"}, {"measurement": "AUC(0-t)", "setting": "[2]; 1 mg/kg, iv 1 mpk, read-out: AUC0-last", "result": 4.82, "unit": "µM·h"}, {"measurement": "Vd", "setting": "[2]; 1 mg/kg, iv 1 mpk, read-out: Vdss", "result": 0.56, "unit": "L/kg"}, {"measurement": "Cmax", "setting": "[2]; 10 mg/kg, po 10 mpk", "result": 8.57, "unit": "µM"}, {"measurement": "Tmax", "setting": "[2]; 10 mg/kg, po 10 mpk", "result": 30, "unit": "min"}, {"measurement": "bioavailability", "setting": "[2]; 10 mg/kg, po 10 mpk", "result": 65, "unit": "%"}, {"measurement": "AUC(0-t)", "setting": "[2]; 10 mg/kg, po 10 mpk, read-out: AUC0-24h", "result": 31.1, "unit": "µM·h"}]}]}
